Data as given in PMC4684082 (Journal of the American Chemical Society, 2015).
Residue numbers refer to the chain shown, from its start.

Legend:
[1] = molecular target: T1, wt hhIYD (iodotyrosine deiodinase from Haliscomenobacter hydrossis) (Haliscomenobacter hydrossis, UniProt F4KU78); test: UV-vis spectrum of enzyme-bound FMN, dithionite reduction; type: binding; settings: pH 6 MES, 500 mM NaCl, 10% glycerol; anaerobic
T1 sequence (F4KU78 1-222): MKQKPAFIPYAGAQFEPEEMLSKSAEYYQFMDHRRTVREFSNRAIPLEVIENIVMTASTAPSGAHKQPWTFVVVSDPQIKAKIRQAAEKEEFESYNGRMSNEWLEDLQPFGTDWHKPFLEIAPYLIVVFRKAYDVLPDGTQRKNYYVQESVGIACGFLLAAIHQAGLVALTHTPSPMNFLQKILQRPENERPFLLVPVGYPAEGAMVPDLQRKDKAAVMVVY

[2] = molecular target: T1, wt hhIYD (iodotyrosine deiodinase from Haliscomenobacter hydrossis); test: quenching of active-site FMNox fluorescence; type: binding
[3] = molecular target: T2, wt hhIYD (iodotyrosine deiodinase from Haliscomenobacter hydrossis) (Haliscomenobacter hydrossis, UniProt F4KU78, T173A); test: steady-state reductive deiodination; type: biochemical; settings: read-out: I2-Tyr / KM; dithionite as reductant
T2 sequence (F4KU78 1-222 T173A): T1 sequence (F4KU78 1-222) with T173A

[4] = molecular target: T2, wt hhIYD (iodotyrosine deiodinase from Haliscomenobacter hydrossis); test: quenching of active-site FMNox fluorescence; type: binding

Structure (SMILES) | UV-vis spectrum of enzyme-bound FMN, dithionite reduction [1] | Kd [2] | Km [3] | Kd [4]
Cc1cc2nc3c(=O)[nH]c(=O)nc-3n(C[C@H](O)[C@H](O)[C@H](O)COP(=O)(O)O)c2cc1C [FMN] | Stoichiometric addition of dithionite to wt hhIYD under anaerobic conditions reduced its FMNox to FMNhq |  |  | 
N[C@@H](Cc1cc(I)c(O)c(I)c1)C(=O)O [I2-Tyr] |  | 2900 ± 100 nM | 35 ± 8 µM | 2600 ± 200 nM
